Measurements taken from publication PMC12386351, “Monoterpene Indole Alkaloids with Antimicrobial Activity Against Helicobacter pylori” (International Journal of Molecular Sciences, 2025).
In brackets after ≈: the same amount, converted by molar mass. Entries after “also recorded” stand apart in the source; their conditions may differ. Like-named read-outs stand apart in the source and are kept apart here.

Tests used:
[1] = test system: H. pylori reference strain J99; assay: MIC and MBC by microdilution against H. pylori reference strain J99; assay type: cell-based, Helicobacter pylori; settings: for MBC: (-) = MBC not determined, as bacterial growth was observed at all tested concentrations (up to 20 µM)
Protocol: To evaluate the activity of the natural products library, in vitro assays were conducted to determine the MIC and MBC against the H. pylori reference strain J99. […] The microplates were then incubated at 37 °C in microaerophilic conditions for 48 h with agitation of 140 rpm. After incubation, the optical density was read at 600 nm (BioTek Epoch2, Agilent, Winooski, VT, USA). All assays were performed in duplicate. DMSO at a concentration of 1% (v/v) was included as a negative control to assess the baseline effect of the solvent, in which bacterial growth was expected, while kanamycin (Sigma-Aldrich, St. Louis, MO, USA) at a concentration of 8 µg/mL was used as a positive control to provide a benchmark for effective antibacterial activity. MIC values were defined as the lowest concentration of a compound that inhibited the growth of H. pylori. MBC values were determined by plating 5 µL aliquots of each dilution onto H. pylori-selective medium, followed by incubation as described above. MBC was defined as the lowest concentration of a compound that rendered no visible colony formation on the solid medium, indicating bactericidal activity.

[2] = MTT cytotoxicity assay on VERO cells; assay type: cell-based; settings: African green monkey, MTT, 80 to 10 µM
Protocol: (§1) The cytotoxicity of the compounds showing antibacterial activity was evaluated in VERO cell cultures (FTVE, Vircell, S.L., Granada, Spain) using the standard MTT colorimetric assay. Briefly, sub confluent cell cultures were exposed for 48 h, to 2-fold dilutions of each assayed compound, ranging from 80 to 10 µM, in 100 μL CO2-independent medium supplemented with 5% FBS and […] gentamicin (Gibco^TM, Grand Island, NY, USA) (CO2-ind-FBS5). In each assay, cells exposed to equivalent concentrations of DMSO as solvent and untreated cells were kept as controls; untreated cells were considered the baseline for 100% viability.
(§2) After 48-h incubation at 37 °C, the culture medium was replaced by fresh CO2-ind-FBS5 medium supplemented with 0.5 mg/mL MTT (Thermo Fisher Scientific, Waltham, MA, USA). Upon a 3-h incubation at 37 °C, the medium was carefully discarded, and the purple formazan crystals formed were dissolved in DMSO (100 μL/well) during a 15-min incubation with agitation at room temperature, followed by absorbance reading at 570 nm, with reference wavelength at 630 nm (BioTek Epoch2, Agilent, Winooski, VT, USA). Data analysis and visualization were performed using Excel (v.2408) and RStudio (v. 2024.04.2). When possible, the half maximal cytotoxic concentration (CC50) values were determined for each compound by fitting a dose–response three- or four-parameter log-logistic function to the triplicate experimental points using RStudio (v.2024.04.2).
(§3) The selectivity index (SI) is the ratio of the cytotoxic concentration for 50% of the cells (CC50) to the inhibitory concentration for 50% of the bacteria (IC50). Considering that IC50 values were not calculated, but are expectably lower than the MIC value, the SI was estimated by dividing the CC50 by the MIC. Therefore, this value is necessarily lower than the SI because the MIC, rather than the bacterial half-maximal inhibitory concentration (IC50), was used in the calculation. This approach allows for an estimation of the therapeutic potential of the compound by providing an indication of its selectivity for targeting bacterial cells over host cells, even though the MIC is used instead of the bacterial IC50.
(§4) To compare biofilm formation between groups (negative control, H. pylori J99, and compound treatments), one-way analysis of variance (ANOVA) was performed, followed by Tukey’s post-hoc test for multiple comparisons. Data analysis was conducted using Python 3.13.5. Similarly, for the cytotoxicity assay in VERO cells, ANOVA and Tukey’s post-hoc test were also used to compare groups at each tested concentration (ranging from 80 to 10 µM), with DMSO-treated and untreated cells as reference groups.

[3] = test system: VERO cells; assay: MTT cytotoxicity assay on VERO cells; assay type: cell-based; settings: 48 h, 10 to 80 µM, versus DMSO and untreated controls
Protocol: as §1, §2, §3, §4

[4] = Helicobacter pylori, H. pylori J99, 48 h, 2-fold dilutions 20 to 0.625 µM
[5] = Helicobacter pylori, H. pylori J99, after conversion from µM to µg/mL
[6] = Helicobacter pylori, H. pylori J99, read-out: MBC

Molecule CCC1CN(C)C2Cc3c([nH]c4ccccc34)C(=NN=Cc3c[nH]c4ccccc34)CC1C2C(=O)OC (centres unmarked) [Compound 4, Dregamine(indolylmethylene)hydrazone] has an MIC [1, 4] of 10 µM, an MIC [1, 5] of 4.96 µg/mL and a CC50 at 48 h [2] of 47 ± 2.2 µM.

Work on CCC1CN(C)C2Cc3c([nH]c4ccccc34)C(c3c(OC)ccc4c5c([nH]c34)C3(C(=O)OC)CC4CC(CC)C3N(CC5)C4CC(C)=O)CC1C2C(=O)OC (centres unmarked) [Compound 7, Tabernaelegantinine A] yielded an MIC [1, 4] of 20 µM, an MIC [1, 5] of 15.2 µg/mL and a CC50 at 48 h [2] of over 80 µM. For the same molecule, the “Effect on cell viability (MTT)” value [3] was “only a slight decrease in cell viability; also recorded: significant effects only at 80 µM”.

CCC1CN(C)C2Cc3c([nH]c4ccccc34)C(=NN=Cc3c[nH]c4cc(Br)ccc34)CC1C2C(=O)OC (centres unmarked) [Compound 6, Dregamine(6′bromo-3′indolylmethylene)hydrazone] showed an MIC [1, 4] of 10 µM, an MBC [1, 6] of 20 µM (≈ 11.5 µg/mL) and an MIC [1, 5] of 5.75 µg/mL. For the same molecule, the CC50 at 48 h [2] was over 80 µM and the “Effect on cell viability (MTT)” value [3] was “only a slight decrease in cell viability; also recorded: did not induce significant cytotoxicity at any tested concentration”.

For CCC1CN(C)C2Cc3c([nH]c4ccccc34)C(=NN=CC=Cc3ccccc3)CC1C2C(=O)OC (centres unmarked) [Compound 3, Dregamine(phenylallylidene)hydrazone], the MBC ([1]; H. pylori J99) was 20 (20) µM, the MIC [1, 4] was 20 µM and the MBC [1, 6] was 20 µM (≈ 9.65 µg/mL). The MIC [1, 5] was 9.65 µg/mL and the CC50 at 48 h [2] was 44.1 ± 2.4 µM.

Work on CCC1CN(C)C2Cc3c([nH]c4ccccc34)C(=NN=Cc3ccccc3O)CC1C2C(=O)OC (centres unmarked) [Compound 5, Dregamine(2′-hydroxybenzylidene)hydrazone] yielded an MIC [1, 4] of 20 µM, an MIC [1, 5] of 9.45 µg/mL and a CC50 at 48 h [2] of 55.8 ± 4.5 µM.
